Experimental data: PMC11676667, “Pharmacokinetics of Oral Cannabinoid Δ8-Tetrahydrocannabivarin and Its Main Metabolites in Healthy Participants” (Pharmaceuticals, 2024)
Where two headings read alike, the source gives them in different places.

Key:
[1] = Plasma pharmacokinetics after single oral dose of Δ8-THCV in MCT oil (LC-MS/MS, non-compartmental analysis); format: in vivo, human; conditions: for concentration at 0.5 h / concentration at 1 h / concentration at 2 h / concentration at 4 h / concentration at 6 h / concentration at 8 h / AUC(0-t) / Cmax / MRT / Tmax: human; for concentration at 0.5 h / concentration at 1 h / concentration at 2 h / concentration at 4 h / concentration at 6 h / concentration at 8 h: oral; for AUC(0-t) / Cmax / MRT / Tmax: po; for MRT: read-out: MRT (mean residence time)
Summary of the method: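 Healthy participants received single oral Δ8-THCV in MCT oil (50 mg/mL; 12.5-200 mg, or placebo) after a high-fat, high-calorie breakfast, with ≥1-week washout. Plasma (K2EDTA) sampled predose and 0.5-8 h post-dose, assayed by validated LC-MS/MS including metabolites; PK by non-compartmental analysis, sub-LLOQ values set to 0.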

CB2 receptors = tested on: CB2 receptors; set-up: method as in PMID 21470208; conditions: in vitro; cited from earlier work
[2] = plasma, 100 mg, 100 mg Δ8-THCV dose, Median (IQ Range)
[3] = plasma, 100 mg, 100 mg Δ8-THCV dose, Mean (SD, %CV)
[4] = plasma, 200 mg, 200 mg Δ8-THCV dose, Mean (SD, %CV)
[5] = plasma, 200 mg, 200 mg Δ8-THCV dose, Median (IQ Range)
[6] = plasma, 12.5 mg, 12.5 mg single oral Δ8-THCV in MCT oil, Mean (±SD)
[7] = plasma, 12.5 mg, 12.5 mg single oral Δ8-THCV in MCT oil, Median (Range)
[8] = plasma, 25 mg, 25 mg single oral Δ8-THCV in MCT oil, Mean (±SD)
[9] = plasma, 25 mg, 25 mg single oral Δ8-THCV in MCT oil, Median (Range)
[10] = plasma, 50 mg, 50 mg single oral Δ8-THCV in MCT oil, Mean (±SD)
[11] = plasma, 50 mg, 50 mg single oral Δ8-THCV in MCT oil, Median (Range)
[12] = plasma, 100 mg, 100 mg single oral Δ8-THCV in MCT oil, Mean (±SD)
[13] = plasma, 100 mg, 100 mg single oral Δ8-THCV in MCT oil, Median (Range)
[14] = plasma, 200 mg, 200 mg single oral Δ8-THCV in MCT oil, Mean (±SD)
[15] = plasma, 200 mg, 200 mg single oral Δ8-THCV in MCT oil, Median (Range)

In the case of `CCCc1cc(O)c2c(c1)OC(C)(C)[C@@H]1CC=C(C)C[C@@H]21` [Δ8-THCV, Δ8-tetrahydrocannabivarin], the concentration at 0.5 h [1, 2] is reported as 0 ng/mL, the concentration at 1 h [1, 3] is reported as 4.2 ng/mL and the concentration at 1 h [1, 2] is reported as 2.1 ng/mL. For the same molecule, the concentration at 2 h [1, 3] was 7.1 ng/mL, the concentration at 2 h [1, 2] was 5.5 ng/mL and the concentration at 4 h [1, 3] was 11.4 ng/mL. For the same molecule, the concentration at 4 h [1, 2] was 7.3 ng/mL, the concentration at 6 h [1, 3] was 12.3 ng/mL and the concentration at 6 h [1, 2] was 7.7 ng/mL. The concentration at 8 h [1, 3] was 4.1 ng/mL, the concentration at 8 h [1, 2] was 3.1 ng/mL and the concentration at 0.5 h [1, 4] was 0.1 ng/mL. The concentration at 0.5 h [1, 5] was 0 ng/mL, the concentration at 1 h [1, 4] was 3.6 ng/mL and the concentration at 1 h [1, 5] was 2 ng/mL. For the same molecule, the concentration at 2 h [1, 4] was 21.4 ng/mL, the concentration at 2 h [1, 5] was 14.3 ng/mL and the concentration at 4 h [1, 4] was 29.4 ng/mL. For the same molecule, the concentration at 4 h [1, 5] was 33.3 ng/mL, the concentration at 6 h [1, 4] was 26.6 ng/mL and the concentration at 6 h [1, 5] was 21.8 ng/mL. The concentration at 8 h [1, 4] was 21.2 ng/mL, the concentration at 8 h [1, 5] was 13.4 ng/mL and the AUC(0-t) [1, 6] was 3.5 ng·h/mL. It also gave a Cmax [1, 6] of 1.6 ng/mL, an AUC(0-t) [1, 7] of 2.1 ng·h/mL and a Cmax [1, 7] of 1.1 ng/mL. It also gave an MRT ([1]; plasma, 12.5 mg, 12.5 mg single oral Δ8-THCV in MCT oil, plasma, Mean (±SD)) of 4 h, a Tmax ([1]; plasma, 12.5 mg, 12.5 mg single oral Δ8-THCV in MCT oil, plasma, Mean (±SD), read-out: tmax) of 3.9 h and an MRT ([1]; plasma, 12.5 mg, 12.5 mg single oral Δ8-THCV in MCT oil, plasma, Median (Range)) of 4 h. It also gave a Tmax ([1]; plasma, 12.5 mg, 12.5 mg single oral Δ8-THCV in MCT oil, plasma, Median (Range), read-out: tmax) of 4 h, an AUC(0-t) [1, 8] of 7.4 ng·h/mL and a Cmax [1, 8] of 2.6 ng/mL. It also gave an AUC(0-t) [1, 9] of 5.2 ng·h/mL, a Cmax [1, 9] of 2.1 ng/mL and an MRT ([1]; plasma, 25 mg, 25 mg single oral Δ8-THCV in MCT oil, plasma, Mean (±SD)) of 4.1 h. For the same molecule, the Tmax ([1]; plasma, 25 mg, 25 mg single oral Δ8-THCV in MCT oil, plasma, Mean (±SD), read-out: tmax) was 3.8 h, the MRT ([1]; plasma, 25 mg, 25 mg single oral Δ8-THCV in MCT oil, plasma, Median (Range)) was 4.2 h and the Tmax ([1]; plasma, 25 mg, 25 mg single oral Δ8-THCV in MCT oil, plasma, Median (Range), read-out: tmax) was 4 h. It also gave an AUC(0-t) [1, 10] of 27.3 ng·h/mL, a Cmax [1, 10] of 10 ng/mL and an AUC(0-t) [1, 11] of 24.9 ng·h/mL. It also gave a Cmax [1, 11] of 10 ng/mL, an MRT ([1]; plasma, 50 mg, 50 mg single oral Δ8-THCV in MCT oil, plasma, Mean (±SD)) of 5.2 h and a Tmax ([1]; plasma, 50 mg, 50 mg single oral Δ8-THCV in MCT oil, plasma, Mean (±SD), read-out: tmax) of 5 h. It also gave an MRT ([1]; plasma, 50 mg, 50 mg single oral Δ8-THCV in MCT oil, plasma, Median (Range)) of 5.4 h, a Tmax ([1]; plasma, 50 mg, 50 mg single oral Δ8-THCV in MCT oil, plasma, Median (Range), read-out: tmax) of 6 h and an AUC(0-t) [1, 12] of 65.5 ng·h/mL. For the same molecule, the Cmax [1, 12] was 21.5 ng/mL, the AUC(0-t) [1, 13] was 58.4 ng·h/mL and the Cmax [1, 13] was 22 ng/mL. The MRT ([1]; plasma, 100 mg, 100 mg single oral Δ8-THCV in MCT oil, plasma, Mean (±SD)) was 4.5 h, the Tmax ([1]; plasma, 100 mg, 100 mg single oral Δ8-THCV in MCT oil, plasma, Mean (±SD), read-out: tmax) was 4.2 h and the MRT ([1]; plasma, 100 mg, 100 mg single oral Δ8-THCV in MCT oil, plasma, Median (Range)) was 4.1 h. For the same molecule, the Tmax ([1]; plasma, 100 mg, 100 mg single oral Δ8-THCV in MCT oil, plasma, Median (Range), read-out: tmax) was 4 h, the AUC(0-t) [1, 14] was 168 ng·h/mL and the Cmax [1, 14] was 52.9 ng/mL. For the same molecule, the AUC(0-t) [1, 15] was 165 ng·h/mL, the Cmax [1, 15] was 51.7 ng/mL and the MRT ([1]; plasma, 200 mg, 200 mg single oral Δ8-THCV in MCT oil, plasma, Mean (±SD)) was 4.7 h. It also gave a Tmax ([1]; plasma, 200 mg, 200 mg single oral Δ8-THCV in MCT oil, plasma, Mean (±SD), read-out: tmax) of 4.7 h, an MRT ([1]; plasma, 200 mg, 200 mg single oral Δ8-THCV in MCT oil, plasma, Median (Range)) of 4.7 h and a Tmax ([1]; plasma, 200 mg, 200 mg single oral Δ8-THCV in MCT oil, plasma, Median (Range), read-out: tmax) of 4 h. For the same molecule, the Tmax ([1]; plasma, across oral Δ8-THCV doses 12.5-200 mg, plasma, read-out: median time-to-maximum concentration (tmax), range across doses) was 3.8 to 5 h, the “number of positive plasma samples” value ([1]; of 504 plasma samples from 15 participants after oral Δ8-THCV) was 236 and the “concentration in representative plasma sample” value ([1]; one subject after oral Δ8-THCV in MCT oil, Figure A1) was 69.8 ng/mL. The “increase of median AUClast every two-fold increase in the dose” value ([1]; oral Δ8-THCV 12.5-200 mg, plasma) was 2.3- to 4.8 fold, the “tmax later after doses greater than 50 mg compared to the 12.5 mg and 25 mg doses” value ([1]; oral Δ8-THCV, plasma) was 1.3 fold and the CB2 receptor activation (CB2 receptors) was “activate CB2 receptors”.
